Values quoted from earlier work as cited in paper PMC2992174 (Journal of nuclear medicine : official publication, Society …, 2010).
Positions of bridges follow the written chain, without caps; N, C: chain ends. No end group written: not given here.

Key:
[1] = tested on: IPA; details: ^111In-labeled peptide, IPA in vivo
[2] = tested on: Candida albicans

CGGRLGPFC-NH2 (disulfide 1-9)
background activity [1]: 0.14 ± 0.02 %ID/g | target uptake [1]: 0.37 ± 0.06 %ID/g

Fe-TAFC
uptake by Candida albicans [2]: inefficient
